Results as given in patent US20110306606A1, “NOVEL 2,6-SUBSTITUTED-3-NITROPYRIDINE DERIVATIVE, METHOD FOR PREPARING SAME, AND PHARMACEUTICAL COMPOSITION INCLUDING SAME” (priority 2008, published 2011).
Read-outs that look alike come from different tables or passages of the source.

Legend:
[1] = system: Osteoblasts (Calvarial cells); experiment: Alkaline phosphatase (ALP) activity in osteoblasts (Calvarial cells); type: cell-based, mice; conditions: 1 μM compound, 3 days; for activity at 1 µM: Mus musculus, 72 h, Calvarial cell, read-out: ALP activity (1 μM, % of Control) Calvarial cell
Method: Differentiation and activity of osteoblasts were indirectly evaluated by measuring an ALP activity having a close relationship with osteogenesis.
Osteoblasts (Calvarial cells) prepared in Experimental Example 1 and MC3T3-E1 cells (available from RIKEN Cell Bank, Japan) were collected in α-MEM supplemented with 10% FBS, followed by cell counting. The cells were dispensed into 24-well cultureware at a density of 2×10^4 cells/well. After culturing of the cells for 24 hours, the culture media were discarded and replaced with fresh media in which test compounds were diluted to a concentration of 1 μM (1 mL/well). In addition, the vehicle control group containing 0.1% DMSO was also treated. […] When the experiment was terminated, the supernatant was removed and the cells were washed three times with cold phosphate buffer at 4°. 0.2% Triton X-100 was added to the washed cells which were then subjected to three cycles of freezing at −70° and thawing at room temperature for the complete lysis of cells. The cell extracts were pooled and centrifuged to collect the cell supernatant which was used for the measurement of ALP activity and proteins. The protein concentration was measured using a BCA assay kit (manufactured by Sigma-Aldrich). For the measurement of ALP activity, p-nitrophenylphosphate was added to the cell supernatant which was then incubated at 37° for 30 minutes, and the reaction was terminated with the addition of 50 μL of 0.2N sodium hydroxide. The standard curve was plotted at the absorbance of 405 nm using p-nitrophenol as a standard material and then the absorbance of test materials thus reacted was measured to determine the production amount of p-nitrophenol.
The ALP activity was calculated by dividing the amount of p-nitrophenol produced from each test material by the protein amount and the reaction time. Therefore, the unit of ALP activity was given in terms of p-nitrophenol/μg protein/min. The results are given in Tables 28-1 and 28-2 where the ALP activity unit of each test material was given in terms of % change through the comparison between the individual test materials and the vehicle control group.

[2] = system: Osteoblasts (Calvarial cells); experiment: Cytotoxicity test (MTT); conditions: 1 μM compound, 72 hours, in comparison with vehicle control
[3] = system: Osteoblasts (Calvarial cells); conditions: ICR, mouse, 72 h, 1 μM

Row | Structure (SMILES) | ALP activity (1 μM, % of Control) Calvarial cell [1] | Cell viability (%) Calvarial cell [2] [%] | Cell viability (%) Calvarial cell [3] [%] | activity at 1 µM [1] [%]
1 | CC1=NCCN1c1ccc([N+](=O)[O-])c(Nc2ccc(C)cc2)n1 [Compound 6, 2-(4-methylphenylamino)-6-[(2-methyl-4,5-dihydro)imidazol-1-yl]-3-nitropyridine] | 116 % of Control | 94 | – | –
2 | Cc1ccc(Nc2nc(N3CCOCC3)ccc2[N+](=O)[O-])cc1 [Compound 14, 2-(4-methylphenylamino)-6-morpholino-3-nitropyridine] | – | – | 99 | 135
3 | CC(C)Nc1ccc([N+](=O)[O-])c(Nc2ccc(C(C)(C)C)cc2)n1 [Compound 31, 2-[4-(t-butyl)phenylamino]-6-(isopropylamino)-3-nitropyridine] | – | – | 108 | 134
4 | CC1=NCCN1c1ccc([N+](=O)[O-])c(Nc2ccc(C(C)(C)C)cc2)n1 [Compound 35, 2-[4-(t-butyl)phenylamino]-6-[(2-methyl-4,5-dihydro)imidazol-1-yl]-3-nitropyridine] | 132 % of Control | 96 | – | –
5 | CCN(CCO)c1ccc([N+](=O)[O-])c(Nc2ccc(C#N)cc2)n1 [Compound 51, 2-(4-cyanophenylamino)-6-[(N-ethyl-2-hydroxy)ethylamino]-3-nitropyridine] | 116 % of Control | 100 | – | –
6 | CNc1ccc([N+](=O)[O-])c(Nc2ccc(N)cc2)n1 [Compound 57, 2-[4-(amino)phenylamino]-6-(methylamino)-3-nitropyridine] | – | – | 103 | 112
7 | CC(C)Nc1ccc([N+](=O)[O-])c(Nc2ccc(N)cc2)n1 [Compound 58, 2-[4-(amino)phenylamino]-6-(isopropylamino)-3-nitropyridine] | – | – | 107 | 127
8 | CC(C)(C)Nc1ccc([N+](=O)[O-])c(Nc2ccc(N)cc2)n1 [Compound 60, 2-[4-(amino)phenylamino]-6-(t-butylamino)-3-nitropyridine] | – | – | 119 | 131
9 | CCN(CCO)c1ccc([N+](=O)[O-])c(Nc2ccc(N3CCOCC3)cc2)n1 [Compound 118, 2-(4-morpholinophenylamino)-6-[(N-ethyl-2-hydroxy)ethylamino]-3-nitropyridine] | 111 % of Control | 102 | – | –
10 | O=[N+]([O-])c1ccc(NCc2ccncc2)nc1Nc1ccc(F)c(F)c1 [Compound 131, 2-[(3,4-difluoro)phenylamino]-6-[(4-pyridyl)methylamino]-3-nitropyridine] | – | – | 100 | –
11 | O=[N+]([O-])c1ccc(N2CCC(O)CC2)nc1Nc1ccc(-c2csc(C3CCCCC3)n2)cc1 [Compound 155, 2-[4-(2-cyclohexylthiazol-4-yl)phenylamino]-6-(4-hydroxypiperidino)-3-nitropyridine] | – | – | 105 | –
12 | CC(C)c1nccn1-c1ccc([N+](=O)[O-])c(Nc2ccc(-c3csc(C4CCCCC4)n3)cc2)n1 [Compound 157, 2-[4-(2-cyclohexylthiazol-4-yl)phenylamino]-6-[(2-isopropyl)imidazol-1-yl]-3-nitropyridine] | – | – | 115 | –
13 | O=[N+]([O-])c1ccc(N2CCNCC2)nc1Nc1ccc(-c2csc(C3CCCCC3)n2)cc1 [Compound 158, 2-[4-(2-cyclohexylthiazol-4-yl)phenylamino]-6-(piperazin-1-yl)-3-nitropyridine] | – | – | 88 | –
14 | O=[N+]([O-])c1ccc(N2CCOCC2)nc1Nc1ccc(-c2csc(C3CCCCC3)n2)cc1 [Compound 160, 2-[4-(2-cyclohexylthiazol-4-yl)phenylamino]-6-morpholino-3-nitropyridine] | – | – | 105 | –
15 | O=[N+]([O-])c1ccc(NCc2cccnc2)nc1Nc1ccc(-c2csc(C3CCCCC3)n2)cc1 [Compound 162, 2-[4-(2-cyclohexylthiazol-4-yl)phenylamino]-6-[(3-pyridyl)methylamino]-3-nitropyridine] | – | – | 67 | –
16 | O=[N+]([O-])c1ccc(NCCc2ccccn2)nc1Nc1ccc(-c2csc(C3CCCCC3)n2)cc1 [Compound 164, 2-[4-(2-cyclohexylthiazol-4-yl)phenylamino]-6-[2-(2-pyridyl)ethylamino]-3-nitropyridine] | – | – | 104 | –
17 | CCCCNc1ccc([N+](=O)[O-])c(Nc2ccc(-c3csc(C4CCCCC4)n3)cc2)n1 [Compound 165, 2-[4-(2-cyclohexylthiazol-4-yl)phenylamino]-6-(n-butylamino)-3-nitropyridine] | – | – | 102 | –
18 | CNc1ccc([N+](=O)[O-])c(Nc2ccc(N3CCOCC3)c(F)c2)n1 [Compound 191, 2-[(3-fluoro-4-morpholino)phenylamino]-6-(methylamino)-3-nitropyridine] | 156 % of Control | 97 | – | –
19 | CC(C)Nc1ccc([N+](=O)[O-])c(Nc2ccc(N3CCOCC3)c(F)c2)n1 [Compound 192, 2-[(3-fluoro-4-morpholino)phenylamino]-6-(isopropylamino)-3-nitropyridine] | 113 % of Control | 99 | – | –
20 | CNc1ccc([N+](=O)[O-])c(Nc2ccc(N3CCSCC3)c(F)c2)n1 [Compound 203, 2-[(3-fluoro-4-thiomorpholino)phenylamino]-6-(methylamino)-3-nitropyridine] | 154 % of Control | 97 | – | –
21 | CC(C)CNc1ccc([N+](=O)[O-])c(Nc2ccc(N3CCSCC3)c(F)c2)n1 [Compound 205, 2-[(3-fluoro-4-thiomorpholino)phenylamino]-6-(isobutylamino)-3-nitropyridine] | 132 % of Control | 109 | – | –
22 | O=[N+]([O-])c1ccc(N2CCC(O)CC2)nc1Nc1ccc(N2CCSCC2)c(F)c1 [Compound 206, 2-[(3-fluoro-4-thiomorpholino)phenylamino]-6-(4-hydroxypiperidino)-3-nitropyridine] | 124 % of Control | 102 | – | –
23 | CC(C)Nc1ccc([N+](=O)[O-])c(Nc2ccc(N3CCCCC3)c(F)c2)n1 [Compound 224, 2-[(3-fluoro-4-piperidino)phenylamino]-6-(isopropylamino)-3-nitropyridine] | 125 % of Control | 101 | – | –
24 | CC(C)Nc1ccc([N+](=O)[O-])c(Nc2ccc(N3CCC(O)CC3)c(F)c2)n1 [Compound 237, 2-{[3-fluoro-4-(4-hydroxypiperidino)]phenylamino}-6-(isopropylamino)-3-nitropyridine] | 117 % of Control | 99 | – | –
25 | O=[N+]([O-])c1ccc(N2CCC(O)CC2)nc1Nc1ccc(N2CCC(O)CC2)c(F)c1 [Compound 239, 2-{[3-fluoro-4-(4-hydroxypiperidino)]phenylamino}-6-(4-hydroxypiperidino)-3-nitropyridine] | 130 % of Control | 98 | – | –
26 | CC1=NCCN1c1ccc([N+](=O)[O-])c(Nc2ccc(N3CCC(N)CC3)c(F)c2)n1 [Compound 252, 2-{[3-fluoro-4-(4-aminopiperidino)]phenylamino}-6-[(2-methyl-4,5-dihydro)imidazol-1-yl]-3-nitropyridine] | 112 % of Control | 103 | – | –
27 | NC1CCN(c2ccc(Nc3nc(N4CCNCC4)ccc3[N+](=O)[O-])cc2F)CC1 [Compound 253, 2-{[3-fluoro-4-(4-aminopiperidino)]phenylamino}-6-(piperazin-1-yl)-3-nitropyridine] | 115 % of Control | 104 | – | –
28 | NC1CCN(c2ccc(Nc3nc(NCc4cccnc4)ccc3[N+](=O)[O-])cc2F)CC1 [Compound 257, 2-{[3-fluoro-4-(4-aminopiperidino)]phenylamino}-6-[(3-pyridyl)methylamino]-3-nitropyridine] | 122 % of Control | 101 | – | –
29 | NC1CCN(c2ccc(Nc3nc(NCc4ccncc4)ccc3[N+](=O)[O-])cc2F)CC1 [Compound 258, 2-{[3-fluoro-4-(4-aminopiperidino)]phenylamino}-6-[(4-pyridyl)methylamino]-3-nitropyridine] | 115 % of Control | 101 | – | –
